Reference: article PMC6629088, “Substituted anthraquinones represent a potential scaffold for DNA methyltransferase 1-specific inhibitors” (PLoS ONE, 2019)
One block for each compound: values may come before it.

Experiments:
Format in all cases: biochemical
[1] = target: T1, DNA methyltransferase 1 (RFTS(-) DNMT1) (Homo sapiens, UniProt P26358); assay: endonuclease-coupled DNA methylation assay (IC50); supported by DSF (+[…] °C), FP DNA competition and detergent test
T1 construct: RFTS(-) DNMT1 (amino acids 621–1616)

[2] = target: T1, DNA methyltransferase 1 (RFTS(-) DNMT1); assay: endonuclease-coupled DNA methylation kinetics (Ki); IC50 […]; supported by DSF (+[…] °C), FP DNA competition and detergent test
[3] = target: T2, DNMT3a (Homo sapiens, UniProt Q9Y6K1); assay: endonuclease-coupled DNA methylation assay, single concentration […] ([…] activity remaining); details: read-out: DNMT3a catalytic domain
T2 construct: C-terminal catalytic domain of DNMT3a (amino acids 611–912)
T2 sequence (Q9Y6K1 611-912): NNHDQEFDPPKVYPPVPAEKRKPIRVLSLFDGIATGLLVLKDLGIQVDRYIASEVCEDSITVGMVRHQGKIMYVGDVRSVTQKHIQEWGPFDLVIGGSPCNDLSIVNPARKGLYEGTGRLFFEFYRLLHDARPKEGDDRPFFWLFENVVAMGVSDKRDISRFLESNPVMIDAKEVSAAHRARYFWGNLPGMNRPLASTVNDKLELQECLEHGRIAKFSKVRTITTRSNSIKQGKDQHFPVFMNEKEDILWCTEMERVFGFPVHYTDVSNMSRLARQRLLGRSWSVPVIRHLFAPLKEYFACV

T1 sequence (P26358 621-1616): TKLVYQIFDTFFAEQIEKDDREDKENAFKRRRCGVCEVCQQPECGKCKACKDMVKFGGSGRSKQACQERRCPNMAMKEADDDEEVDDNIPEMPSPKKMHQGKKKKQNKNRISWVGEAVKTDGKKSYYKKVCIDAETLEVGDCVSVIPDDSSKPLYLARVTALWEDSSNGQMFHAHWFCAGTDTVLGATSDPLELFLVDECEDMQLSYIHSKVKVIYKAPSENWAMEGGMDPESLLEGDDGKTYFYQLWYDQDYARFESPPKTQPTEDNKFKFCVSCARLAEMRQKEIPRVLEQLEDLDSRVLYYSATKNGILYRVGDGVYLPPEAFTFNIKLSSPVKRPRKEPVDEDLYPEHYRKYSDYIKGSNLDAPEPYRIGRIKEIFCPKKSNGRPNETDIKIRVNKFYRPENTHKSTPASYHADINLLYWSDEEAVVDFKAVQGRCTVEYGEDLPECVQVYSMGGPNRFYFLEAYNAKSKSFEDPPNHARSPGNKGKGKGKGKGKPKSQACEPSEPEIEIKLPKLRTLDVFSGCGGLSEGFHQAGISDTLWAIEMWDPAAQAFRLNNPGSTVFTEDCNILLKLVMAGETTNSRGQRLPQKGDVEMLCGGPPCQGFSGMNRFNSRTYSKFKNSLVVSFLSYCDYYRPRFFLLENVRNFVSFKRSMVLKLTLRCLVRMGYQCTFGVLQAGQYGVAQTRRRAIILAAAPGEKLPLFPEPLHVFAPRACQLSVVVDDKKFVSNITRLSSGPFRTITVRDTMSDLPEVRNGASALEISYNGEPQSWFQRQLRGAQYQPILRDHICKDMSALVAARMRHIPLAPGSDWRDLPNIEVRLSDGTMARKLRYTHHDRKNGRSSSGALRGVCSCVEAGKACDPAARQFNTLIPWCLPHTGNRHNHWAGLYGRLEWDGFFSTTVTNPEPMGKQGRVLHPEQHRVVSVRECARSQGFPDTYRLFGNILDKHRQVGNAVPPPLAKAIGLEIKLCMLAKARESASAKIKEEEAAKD

IC50 [1]: 59 ± 10 µM
SMILES: Cc1ccc(NC(=O)c2ccc3c(c2O)C(=O)c2ccccc2C3=O)cc1 [A11]

Ki [2]: 13 ± 3 µM
SMILES: COc1cc(C(=O)Nc2ccc3c(c2)C(=O)c2ccccc2C3=O)cc(OC)c1OC [A13]

activity at 100 µM [3]: 32 ± 1%
SMILES: CC(=O)NCCc1ccc(O)c(-c2c(O)c(O)c3c(c2O)C(=O)c2c(cc(O)c(C(=O)O)c2C(=O)O)C3=O)c1 [LCA, laccaic acid A]
